Read-outs that look alike come from different tables or passages of the source.
How the values were obtained:
SU-DHL-4 = test: CellTiter-Glo (CTG) antiproliferative assay, 5-day; assay type: cell-based; conditions: Homo sapiens, 120 h; SU-DHL-4, 5-day assay, n = 6
Procedure: To evaluate the activity of both Compound 1 and Compound 2 in DLBCL cells, a CellTiter-Glo (CTG) assay was performed to measure the antiproliferative activity.

[1] = test system: CRBN^WT and CRBN^−/− DLBCL cells; test: Proliferation of CRBN^WT and CRBN^−/− DLBCL cells (six lines); assay type: cell-based
Source text: The activated B-cell (ABC) and MYC/BCL2 double expressor cell lines SU-DHL-2 and RIVA, the germinal center B-cell (GCB) and MYC/BCL2 double hit cell lines (and expressing BCL6) Karpas-422, SU-DHL-10, WSU-DLCL2, and the primary mediastinal B-cell lymphoma (PMBL) cell line Farage were infected with a CAS9 expressing lentivirus construct to generate the control CAS9 expressing cells. The Cas9 cells had wild type cereblon expression (CRBN^WT).
To generate the cereblon knock out cells (CRBN^−/−), the individual control CAS9 cells were infected with a construct expressing a subgenomic single guide RNA (sgRNA). Western blot analysis confirmed the absence of cereblon protein in the CRBN^−/− cells, relative to the levels of the housekeeping protein β-tubulin. The CRBN^WT and CRBN^−/− cells were treated with increasing concentrations of Compound 1 for five days.

LPS system = test: BioMAP LPS system (PBMCs and endothelial cells); assay type: cell-based, human; conditions: 0.01, 0.1, 1, and 10 μM
Procedure: (§1) The activity of Compound 1 was profiled in a panel of human primary cell-based assays, modeling complex tissue and disease biology of organs (vasculature, immune system, skin, lung) and general tissue biology using the BioMAP System (DiscoveRx, Fremont, Calif.).
(§2) The BioMAP System consists of twelve primary human monoculture or co-culture systems in stimulated and non-stimulated control conditions (FIG. 4, panel A). When tested at 0.01, 0.1, 1, and 10 μM, Compound 1 mediated changes in key biomarker activities. Specifically, the profiles for Compound 1 reflected selective anti-inflammatory and immunomodulatory impact on monocyte (LPS) and T cell dependent B cell activation responses (BT). Treatment with Compound 1 led to a decrease in interleukin 8 (IL-8), interleukin 1a (IL-1a), secreted prostaglandin E2 (sPGE2), and secreted tumor necrosis factor alpha (sTNFα) in the LPS system, which consisted of peripheral blood mononuclear cells (PBMCs) and endothelial cells. Furthermore, secreted IgG (sIgG), secreted interleukin 17A (sIL-17A), secreted interleukin 17F (sIL-17F), and sTNFα decreased, whereas secreted interleukin 2 (sIL-2) and secreted interleukin 6 (sIL-6) increased, in the BT system, which was comprised of B cells and PBMCs.

MyoF system = test: BioMAP MyoF system (lung fibroblasts); assay type: cell-based, human; conditions: 0.01, 0.1, 1, and 10 μM
Procedure: as §1, §2

[2] = test system: KARPAS-422, RIVA, HT, and SU-DHL-4 cell lines; test: Dose response in cells expressing degradation-resistant mutants of Ikaros, Aiolos, ZFP91; assay type: cell-based; conditions: KARPAS-422 and SU-DHL-4
Source text: To test whether Ikaros and Aiolos were redundant in promoting the survival and proliferation of DLBCL lines, degradation-resistant mutants of Ikaros (IKZF1-G151A), Aiolos (IKZF3-G152A), and ZFP91 (ZFP91-G405A), along with NanoLuc luciferase (Nluc) as a control, were ectopically and stably expressed in four DLBCL cell lines: KARPAS-422, RIVA, HT, and SU-DHL-4. Dose response curves with Compound 1 indicate that expression of degradation-resistant mutants of Ikaros or Aiolos provided protection from Compound 1 in all four cell lines (FIG. 11). Additionally, the ectopic expression of the degradation-resistant mutants, as well as their protection against Compound 1-induced degradation, was confirmed by immunoblot analysis. […] Beta-actin levels were used as a control. […] However, there were varying degrees of protection observed in the four cell lines.

Ikaros [3] = target: T1, Ikaros (Homo sapiens, UniProt Q13422+Q96SW2); test: Ikaros protein level by flow cytometry during ex vivo myeloid differentiation; assay type: cell-based
T1 sequence (Q13422 whole entry): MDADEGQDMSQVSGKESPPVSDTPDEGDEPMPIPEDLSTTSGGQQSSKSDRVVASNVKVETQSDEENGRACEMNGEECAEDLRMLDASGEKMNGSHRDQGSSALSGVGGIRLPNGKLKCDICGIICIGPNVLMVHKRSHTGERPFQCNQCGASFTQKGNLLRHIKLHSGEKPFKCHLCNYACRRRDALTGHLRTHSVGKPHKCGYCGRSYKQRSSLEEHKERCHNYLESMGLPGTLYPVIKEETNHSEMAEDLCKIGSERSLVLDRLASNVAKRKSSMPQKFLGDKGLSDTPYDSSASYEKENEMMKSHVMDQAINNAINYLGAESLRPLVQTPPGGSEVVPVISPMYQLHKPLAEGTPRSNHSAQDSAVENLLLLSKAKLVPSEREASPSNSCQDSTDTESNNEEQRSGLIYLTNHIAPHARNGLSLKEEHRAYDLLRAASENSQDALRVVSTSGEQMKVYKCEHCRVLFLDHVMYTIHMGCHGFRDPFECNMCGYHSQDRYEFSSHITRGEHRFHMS
T1 sequence (Q96SW2 whole entry): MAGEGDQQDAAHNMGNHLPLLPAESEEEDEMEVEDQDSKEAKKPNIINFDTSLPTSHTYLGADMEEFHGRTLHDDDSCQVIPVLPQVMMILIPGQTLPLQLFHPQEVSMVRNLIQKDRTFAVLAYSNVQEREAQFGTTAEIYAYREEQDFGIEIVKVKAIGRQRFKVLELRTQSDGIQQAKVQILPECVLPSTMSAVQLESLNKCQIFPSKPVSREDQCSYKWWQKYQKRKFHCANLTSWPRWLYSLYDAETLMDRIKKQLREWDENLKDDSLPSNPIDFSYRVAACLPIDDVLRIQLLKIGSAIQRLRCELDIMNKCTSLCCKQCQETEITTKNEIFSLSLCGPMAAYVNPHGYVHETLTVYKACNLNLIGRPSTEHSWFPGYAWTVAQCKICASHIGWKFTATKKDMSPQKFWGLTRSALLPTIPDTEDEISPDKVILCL
T1 sequence (Q16531 whole entry partner): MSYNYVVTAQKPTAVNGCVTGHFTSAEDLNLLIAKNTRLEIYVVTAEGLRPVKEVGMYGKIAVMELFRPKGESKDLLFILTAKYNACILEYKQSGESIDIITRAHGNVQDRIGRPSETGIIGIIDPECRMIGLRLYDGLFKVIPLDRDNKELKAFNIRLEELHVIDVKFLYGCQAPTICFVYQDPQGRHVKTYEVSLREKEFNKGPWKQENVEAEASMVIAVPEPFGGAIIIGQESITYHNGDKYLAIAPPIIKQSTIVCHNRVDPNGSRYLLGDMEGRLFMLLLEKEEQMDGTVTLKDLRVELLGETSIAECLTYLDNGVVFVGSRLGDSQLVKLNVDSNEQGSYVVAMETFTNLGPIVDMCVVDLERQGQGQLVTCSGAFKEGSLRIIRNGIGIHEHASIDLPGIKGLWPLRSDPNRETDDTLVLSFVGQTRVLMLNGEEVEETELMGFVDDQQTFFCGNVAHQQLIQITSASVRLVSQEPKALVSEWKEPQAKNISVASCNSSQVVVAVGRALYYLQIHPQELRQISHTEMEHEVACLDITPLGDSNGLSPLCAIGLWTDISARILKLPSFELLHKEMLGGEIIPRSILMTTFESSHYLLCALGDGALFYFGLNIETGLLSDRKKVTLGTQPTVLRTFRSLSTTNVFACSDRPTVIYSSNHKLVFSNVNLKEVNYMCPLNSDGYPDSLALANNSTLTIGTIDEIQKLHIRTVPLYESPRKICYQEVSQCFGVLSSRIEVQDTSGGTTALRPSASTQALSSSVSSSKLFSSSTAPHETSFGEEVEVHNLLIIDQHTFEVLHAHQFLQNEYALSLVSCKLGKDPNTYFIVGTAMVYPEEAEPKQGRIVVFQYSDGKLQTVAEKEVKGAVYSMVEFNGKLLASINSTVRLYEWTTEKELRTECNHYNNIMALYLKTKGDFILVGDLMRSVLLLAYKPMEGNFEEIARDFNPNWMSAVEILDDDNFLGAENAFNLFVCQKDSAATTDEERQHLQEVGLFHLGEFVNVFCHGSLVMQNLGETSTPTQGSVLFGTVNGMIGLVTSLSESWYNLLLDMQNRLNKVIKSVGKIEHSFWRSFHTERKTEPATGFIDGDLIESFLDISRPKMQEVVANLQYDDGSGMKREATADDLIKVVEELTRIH
Source text: Ikaros protein levels were monitored during periods of Compound 1 exposure and recovery. Ikaros levels were reduced during Compound 1 exposure and recovered following drug withdrawal in a concentration-dependent manner with no significant differences noted in association with different exposure schedules (FIG. 21; FIG. 22). Ikaros levels began returning to normal after at least 3 days following washout, predating full recovery of maturation of late-stage neutrophil precursors (FIG. 23). […] Accordingly, Ikaros levels in neutrophils can serve as a marker for response to Compound 1.
Ikaros protein level was analyzed by flow cytometry every two or three days. As shown in FIG. 21 and FIG. 22, Ikaros protein was degraded under both Compound 1 treatment schedules (14 days and 5 days) and its expression was restored after drug washout in a concentration dependent manner.

Ikaros [4] = target: T1, Ikaros; test: ePL-tagged substrate degradation kinetics in DF15 cells (enantiomer comparison); assay type: cell-based; set-up: expressed in transfected cells; host or cells: DF15 cells; Ikaros Y-constant: scale not given here; conditions: for DC50: read-out: Ikaros EC50
Procedure: In a second assay, DF15 cell lines expressing ePL-tagged target protein substrates were used as a model system to monitor protein degradation at 0.75, 1, 1.5, 3, 4, and 24 hours over a concentration range from 1 pM to 10 μM. The proteins evaluated were Ikaros (FIG. 17), Aiolos, and ZFP91. Compound 1 and Compound 2 were both able to degrade the substrate proteins at all time points (Table 9). In a further assay, additional time points were included to monitor the effect of treatment with Compound 1 and Compound 2.
The depth of substrate protein degradation described by the Y-constant was also measured in this assay against a negative control luciferase inhibitor (CC1071297, Y-constant=0).

DoxoR cell lines = test: Doxorubicin-resistant (DoxoR) versus matching parental DLBCL lines; assay type: cell-based; conditions: DoxoR versus matching parental cells
Procedure: The activity of Compound 1 was also evaluated in cell lines with acquired resistance to doxorubicin (Table 4). Doxorubicin-resistant cell lines (DoxoR) were generated by culturing the parental cell lines in vitro with increasing concentrations of doxorubicin for a long period of time (˜9 to 18 months) until they were able to grow in the presence of a relatively high concentration of doxorubicin (1 μM). Matching parental (M-Parent) cells were generated by maintaining the parental cells in culture without treatment for the same amount of time (˜9 to 18 months). The growth-inhibitory effect of doxorubicin on parental cells and the corresponding resistant cells was evaluated by measuring the number of viable cells and extent of apoptosis by 7-AAD exclusion and Annexin V staining using flow cytometry.

Structure (SMILES): O=C1CC[C@H](N2C(=O)c3cccc(NCc4ccc(CN5CC(N6CCOCC6)C5)cc4F)c3C2=O)C(=O)N1 [Compound 1, (S)-2-(2,6-dioxopiperidin-3-yl)-4-((2-fluoro-4-((3-morpholinoazetidin-1-yl)methyl)benzyl)amino)isoindoline-1,3-dione]
- IC50 (SU-DHL-4): 22 nM
- IC50 ([1]; 120 h, six DLBCL lines, five days, read-out: IC50 in control CAS9 expressing cells (CRBN^WT)): 2.5 to 40 nM
- effect of CRBN knock-out on antiproliferative activity ([1]; CRBN^−/− cells): blocked the antiproliferative activity
- IL-8, IL-1a, sPGE2, and sTNFα (LPS system): decrease
- collagen-I and -III expression (MyoF system): compelling inhibition
- plasminogen activator inhibitor-1 (PAI-1) expression (MyoF system): slight inhibition
- protection by degradation-resistant mutants of Ikaros or Aiolos [2]: nearly complete protection
- recovery of Ikaros protein (Ikaros [3]; Day 19, all concentrations, after 14 days of treatment): complete recovery
- time after washout at which Ikaros levels began returning to normal (Ikaros [3]; neutrophil precursors, following washout): at least 3 days
- Ikaros Y-constant (Ikaros [4]; 0.75 hours): 39.3
- DC50 (Ikaros [4]; 0.75 hours): 1.25 nM
- Ikaros Y-constant (Ikaros [4]; 1 hour): 27.5
- DC50 (Ikaros [4]; 1 hour): 1.01 nM
- Ikaros Y-constant (Ikaros [4]; 1.5 hours): 12.5
- DC50 (Ikaros [4]; 1.5 hours): 0.96 nM
- Ikaros Y-constant (Ikaros [4]; 3 hours): 8.6
- DC50 (Ikaros [4]; 3 hours): 0.81 nM
- Ikaros Y-constant (Ikaros [4]; 4 hours): 6.8
- DC50 (Ikaros [4]; 4 hours): 0.99 nM
- Ikaros Y-constant (Ikaros [4]; 24 hours): 2.6
- DC50 (Ikaros [4]; 24 hours): 0.35 nM

Structure (SMILES): COc1cccc2c1C(=O)c1c(O)c3c(c(O)c1C2=O)C[C@@](O)(C(=O)CO)C[C@@H]3O[C@H]1C[C@H](N)[C@H](O)[C@H](C)O1 [Doxorubicin, reference compound]
- shifts in IC50 values for doxorubicin in DoxoR lines (DoxoR cell lines): more than 100 fold
